In patent US4415546A, “Biologically active analogs of ACTH and radioimmuno assay therefor” (priority 1981, dated 1983):
Where two headings read alike, the source gives them in different places. Each block holds one substance with its values, some of them ahead of it. No end group written: not given here.

Experiments:
[1] = test system: isolated rat adrenocortical cells; assay: isolated rat adrenocortical cell assay (corticosterone production); assay type: cell-based
ACTH antiserum = assay: standard radioimmunoassay, displacement of [125I]-Tyr23,Phe2,Nle4-ACTH (1-38) from ACTH antiserum; assay type: binding, rabbit
Procedure: Standard radioimmunoassays were performed as follows: Unlabeled ACTH or other peptides in a volume of 50 μl were mixed with 50 μl antiserum and 50 μl Protein A immunoprecipitant washed as described above. All components were prepared in assay buffer and incubated at 4° for 24 hr. […] One ml of assay buffer was added and the tubes were processed as described above for counting in the Beckman 4000 counter.

ACTH antiserum 46-1 = assay: saturation curves of ACTH antiserum with labeled ACTH; assay type: binding, rabbit
Procedure: Varying amounts of labeled ACTH were incubated with the antiserum at a final dilution of 1:58,000 in a total volume of 200 μl for 2 hr. at room temperature. Blanks containing no antiserum were included for each point.
25 μl of this washed protein A immunoprecipitant was added and the incubation was continued at 4° for 18 hr. One ml of assay buffer at 4° was added to a series of tubes and the tubes were then centrifuged at 2500 rpm for 15 min in a Beckman model TJ-6 refrigerated centrifuge.
The tubes containing [^3 H]-ACTH were processed similarly, drained, wiped and then 0.5 ml 0.1 N NaOH was added. The tubes were stirred on a Vortex mixer for 20 sec. and incubated at 37° for 30 min. An aliquot (0.4 ml) of the NaOH extract was mixed with phase combininhg scintillant (PCS, Amersham) and counted in a Packard PRIAS scintillation counter.

steroidogenesis = settings: literature values; cited from earlier work
[2] = isolated rat adrenocortical cells, result in words

Substance: monoiodo Tyr^23,Phe^2,Nle^4 -ACTH (1-38)
steroidogenic potency compared with ACTH [1, 2]: equipotent with ACTH | displacement curve compared with ACTH (ACTH antiserum; result in words): identical

Substance: [^125 I]-Tyr^23,Phe^2,Nle^4 -ACTH (1-38)
EC50 ([1]; corticosterone production, 37° for 1 hr, non-linear least squares analysis, read-out: concentration required for half maximal stimulation of steroidogenesis): 40.7 ± 6.9 pM | steroidogenic potency compared with ACTH [1, 2]: indistinguishable from that of ACTH | Kd (ACTH antiserum 46-1; saturation binding, no preincubation, read-out: concentration needed for half-maximal binding of the radioligand): 96 ± 16 pM

Kd (ACTH antiserum 46-1; from saturation curves, antiserum dilution 1:58,000, read-out: apparent dissociation constant for the interaction with antiserum 46-1): 96 ± 16 pM | IC50 (ACTH antiserum; preincubation of the antiserum with the competing peptide, read-out: value for 50% displacement of radioligand): 20.3 ± 3.3 pM | equivalents of unlabeled hormone for 50% displacement of the radioligand (ACTH antiserum; under the preincubation conditions): less than one equivalent | equivalents of unlabeled hormone for 50% displacement of the radioligand (ACTH antiserum; without preincubation): one equivalent
Substance: H-Ser^1 -Tyr-Ser-Met-Glu^5 -His-Phe-Arg-Trp-Gly^10 -Lys-Pro-Val-Gly-Lys^15 -Lys-Arg-Arg-Pro-Val^20 -Lys-Val-Tyr-Pro-Asn^25 -Gly-Ala-Glu-Asp-Glu^30 -Ser-Ala-Glu-Ala-Phe^35 -Pro-Leu-Glu-Phe^39 -Oh [ACTH]

Substance: [^125 I]ACTH: 125I labelled natural ACTH prepared by a lactoperoxidase process (McIlhinney and Schulster) (SYSMEHFRWGKPVGKKRRPVKVYPNGAEDESAEAFPLEF; also: 125I label (lactoperoxidase); UniProt P01189 138-176, looked up)
steroidogenic activity / potency relative to natural ACTH (steroidogenesis): 50%

Substance: Phe^2, Nle^4 -ACTH-(1-38)
maximal stimulation of corticosterone production compared with human ACTH [1, 2]: same maximal degree as human ACTH | steroidogenic potency compared with ACTH [1, 2]: as potent as ACTH
